Measurements: publication PMC8119899, “A Single Mutation in the Outer Lipid-Facing Helix of a Pentameric Ligand-Gated Ion Channel Affects Channel Function Through a Radially-Propagating Mechanism” (Frontiers in Molecular Biosciences, 2021)
Positions count from the first letter of the chain named.

Legend:
Assay type in all cases: cell-based
5-HT3A receptor D238A [1] = target: T1, 5-HT3A receptor D238A (Mus musculus, UniProt P23979, D265A); experiment: Two-electrode voltage clamp, 5-HT response, D238A receptor in Xenopus oocytes; parameters: key: Mutants that did not respond in the functional assay are marked as non functional (NF)
T1 sequence (P23979 24-489 D265A): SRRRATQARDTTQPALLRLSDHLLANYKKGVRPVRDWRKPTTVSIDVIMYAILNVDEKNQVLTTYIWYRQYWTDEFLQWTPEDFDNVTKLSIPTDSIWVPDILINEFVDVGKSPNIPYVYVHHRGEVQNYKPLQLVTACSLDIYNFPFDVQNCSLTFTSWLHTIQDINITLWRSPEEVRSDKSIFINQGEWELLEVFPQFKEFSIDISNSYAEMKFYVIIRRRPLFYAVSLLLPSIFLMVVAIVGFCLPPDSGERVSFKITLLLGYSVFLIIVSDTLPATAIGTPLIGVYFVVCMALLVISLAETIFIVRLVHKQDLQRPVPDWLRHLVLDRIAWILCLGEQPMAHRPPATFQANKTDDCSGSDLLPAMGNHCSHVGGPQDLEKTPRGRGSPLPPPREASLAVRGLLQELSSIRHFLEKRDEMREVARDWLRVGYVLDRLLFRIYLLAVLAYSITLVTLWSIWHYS
Description: (§1) The mouse 5-HT3A cDNA (Q6J1J7) in pcDNA3.1 (for HEK cell transfection) or pGEMHE (for RNA production) was modified by QuikChange site-directed mutagenesis (Agilent Technologies) to create point mutants (verified by sequencing).
Xenopus laevis oocytes from EcoCyte Biosciences (Austin Texas) were injected with 100 pg cRNA (generated with the ThermoFisher mMESSAGE mMACHINE T7 transcription kit) and left in injection media [88 mM NaCl, 2.4 mM NaHCO3, 1 mM KCl, 0.82 mM MgSO4 ·7H20, 5 mM Tris-HCl, 0.33 mM Ca(NO3)2·4H2O, 0.41 mM CaCl2·2H2O, 2.51 mM sodium pyruvate, 0.12 mg/ml theophylline, 0.05 mg/ml gentamicin, pH 7.5] at 16 °C for 24 h. […] The holding potential was −60 mV, using glass microelectrodes with a resistance of approximately 1 MΩ backfilled with 3M KCl.

5-HT3A receptor S297A = target: T2, 5-HT3A receptor S297A (Mus musculus, UniProt P23979, S324A); experiment: FlexStation membrane potential dye, 5-HT response, S297A receptor in HEK293 cells; conditions: mean and SEM, n ≥ 3
T2 construct: expressed in transfected cells; host or cells: HEK293
T2 sequence (P23979 24-489 S324A): T1 sequence (P23979 24-489 D265A) with A242D, S301A
Description: as §1
(§2) Human embryonic kidney (HEK) 293 cells were maintained at 37 °C at 5% CO2 in a humidified atmosphere, in Dulbecco's Modified Eagle's Medium/Nutrient Mix F12 (1:1) (Invitrogen, Paisley, UK) with GlutaMAX^TM and 10% fetal bovine serum (GE Healthcare) (DMEM/FBS) and passaged when confluent.
(§3) As described previously (Price and Lummis, [2005]) cells were incubated for 45 min with fluorescent membrane potential-sensitive dye (Membrane Potential Blue kit, Molecular Devices) diluted in Flex buffer (10 mM HEPES, 115 mM NaCl, 1 mM KCl, 1 mM CaCl2, 1 mM MgCl2, and 10 mM glucose, pH 7.4), and subsequently assayed at room temperature for 180 s, with readings every 2 s. […] (log of the concentration of ligand), a is the minimum response, b is the maximum response, and nH is the Hill slope.

5-HT3A receptor K255Q = target: T3, 5-HT3A receptor K255Q (Mus musculus, UniProt P23979, K282Q); experiment: FlexStation membrane potential dye, 5-HT response, K255Q receptor in HEK293 cells; conditions: mean and SEM, n ≥ 3
T3 construct: expressed in transfected cells; host or cells: Xenopus laevis oocytes (cRNA injection)
T3 sequence (P23979 24-489 K282Q): T1 sequence (P23979 24-489 D265A) with A242D, K259Q
Description: as §1, §2, §3

5-HT3A receptor D238A [2] = target: T1, 5-HT3A receptor D238A; experiment: FlexStation membrane potential dye, 5-HT response, D238A receptor in HEK293 cells; parameters: expressed in transfected cells; host or cells: HEK293; key to pEC50: Mutants that did not respond in the functional assay are marked as non functional (NF)
Description: as §1
Human embryonic kidney (HEK) 293 cells were maintained at 37 °C at 5% CO2 in a humidified atmosphere, in Dulbecco's Modified Eagle's Medium/Nutrient Mix F12 (1:1) (Invitrogen, Paisley, UK) with GlutaMAX^TM and 10% fetal bovine serum (GE Healthcare) (DMEM/FBS) and passaged when confluent. Five micrograms of WT or mutant 5-HT3A DNA and 30 μl polyethyleneamine (Polysciences) incubated for 10 min in 1 mL DMEM was added to 60% confluent HEK293 cells for transfection, and cells grown for 2 days before assays.
as §3

Structure (SMILES): NCCc1c[nH]c2ccc(O)cc12 [5-HT]
- pEC50 (5-HT3A receptor D238A [1]): NF
- nH (5-HT3A receptor S297A): 3.5 ± 0.8
- nH (5-HT3A receptor K255Q): 1.9± 0.2
- pEC50 (5-HT3A receptor D238A [2]): NF
- response to application of 5-HT (5-HT3A receptor D238A [2]): Neither Y441A nor D238A responded
